According to US20230111310A1, “CARBOXYLIC ACID DERIVATIVE-SUBSTITUTED IMINO ARYL COMPOUND, PREPARATION METHOD THEREFOR, HERBICIDAL COMPOSITION AND USE THEREOF” (Qingdao Kingagroot Chemical Compound Co., Ltd., priority 2020, published 2023):

Tested on: Echinochloa crusgalli
Experiment: Weeding effect in post-emergence stage
Format: in vivo
Conditions: Dose 15 g/ha; fresh weight control rate level
Procedure, shortened: (§1)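 Doses of 500, 250, 125, 60, 30, 15 and 7.5 g/ha, with methyl oleate synergist (1.5 liter/ha) and Tween 80 from acetone solution, applied by spray tower post-emergence (2–3 leaf stage). Weed control scored after 3 further greenhouse weeks, averaged over triplicates.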

Question: With `COC(=O)C(C)O/N=C/c1cc(-n2c(=S)cc(C(F)(F)F)n(C)c2=O)c(F)cc1Br` (racemic) [Compound 388] as the molecule, how does the “Weeding effect in post-emergence stage, Echinochloa crusgalli (level)” value (shortened to “Weeding effect … Echinochloa crusgalli (level)”) read?
Answer: Its value is 5 (Level 5: growth control rate is above 85%).

Question: How did the “Weeding effect … Echinochloa crusgalli (level)” value turn out when `COC(=O)C(C)O/N=C/c1cc(-n2c(=S)cc(C(F)(F)F)n(C)c2=S)c(F)cc1C#N` (racemic) [Compound 390] was run?
Answer: The value was 5 (Level 5: growth control rate is above 85%).

Same assay, conditions: Dose 60 g/ha; fresh weight control rate level

Question: For `COC(=O)C(C)O/N=C/c1cc(-n2c(=S)cc(C(F)(F)F)n(C)c2=S)c(F)cc1Br` (racemic) [Compound 391], which “Weeding effect … Echinochloa crusgalli (level)” value is on record?
Answer: Its value is 5 (Level 5: growth control rate is above 85%).

Question: With `COC(=O)C(C)O/N=C/c1cc(-n2c(=S)cc(C(F)(F)F)n(C)c2=S)c(F)cc1C(F)(F)F` (racemic) [Compound 392] as the molecule, how does the “Weeding effect … Echinochloa crusgalli (level)” value read?
Answer: The value was 5 (Level 5: growth control rate is above 85%).

Question: For `COC(=O)C(C)O/N=C/c1cc(-n2c(=S)cc(C(F)(F)F)n(C)c2=S)c(F)cc1C#N` (racemic) [Compound 393], which “Weeding effect … Echinochloa crusgalli (level)” value is on record?
Answer: Its value is 5 (Level 5: growth control rate is above 85%).

Question: Which “Weeding effect … Echinochloa crusgalli (level)” value does the source give for `COC(=O)C(C)O/N=C/c1cc(-n2c(=O)cc(C(F)(F)F)n(C)c2=S)c(F)cc1Br` (racemic) [Compound 394] here?
Answer: Its value is 5 (Level 5: growth control rate is above 85%).

Tested on: Eleusine indica
Experiment: Weeding effect in post-emergence stage
Format: in vivo
Conditions: Dose 15 g/ha; fresh weight control rate level
Procedure, shortened: as §1

Question: With `COC(=O)C(C)O/N=C/c1cc(-n2c(=S)cc(C(F)(F)F)n(C)c2=O)c(F)cc1Br` (racemic) [Compound 388] as the molecule, how does the “Weeding effect in post-emergence stage, Eleusine indica (level)” value (from here on “Weeding effect … Eleusine indica (level)”) read?
Answer: Its value is 5 (Level 5: growth control rate is above 85%).

Question: How did the “Weeding effect … Eleusine indica (level)” value turn out when `COC(=O)C(C)O/N=C/c1cc(-n2c(=S)cc(C(F)(F)F)n(C)c2=S)c(F)cc1C#N` (racemic) [Compound 390] was run?
Answer: Its value is 5 (Level 5: growth control rate is above 85%).

Same assay, conditions: Dose 60 g/ha; fresh weight control rate level

Question: How did the “Weeding effect … Eleusine indica (level)” value turn out when `COC(=O)C(C)O/N=C/c1cc(-n2c(=S)cc(C(F)(F)F)n(C)c2=S)c(F)cc1Br` (racemic) [Compound 391] was run?
Answer: Its value is 5 (Level 5: growth control rate is above 85%).

Question: How did the “Weeding effect … Eleusine indica (level)” value turn out when `COC(=O)C(C)O/N=C/c1cc(-n2c(=S)cc(C(F)(F)F)n(C)c2=S)c(F)cc1C(F)(F)F` (racemic) [Compound 392] was run?
Answer: The value was 5 (Level 5: growth control rate is above 85%).

Question: How did the “Weeding effect … Eleusine indica (level)” value turn out when `COC(=O)C(C)O/N=C/c1cc(-n2c(=S)cc(C(F)(F)F)n(C)c2=S)c(F)cc1C#N` (racemic) [Compound 393] was run?
Answer: Its value is 5 (Level 5: growth control rate is above 85%).

Question: Which “Weeding effect … Eleusine indica (level)” value does the source give for `COC(=O)C(C)O/N=C/c1cc(-n2c(=O)cc(C(F)(F)F)n(C)c2=S)c(F)cc1Br` (racemic) [Compound 394] here?
Answer: The value was 5 (Level 5: growth control rate is above 85%).

Tested on: Setaria viridis
Experiment: Weeding effect in post-emergence stage
Format: in vivo
Conditions: Dose 15 g/ha; fresh weight control rate level
Procedure, shortened: as §1

Question: For `COC(=O)C(C)O/N=C/c1cc(-n2c(=S)cc(C(F)(F)F)n(C)c2=O)c(F)cc1Br` (racemic) [Compound 388], which “Weeding effect in post-emergence stage, Setaria viridis (level)” value (shortened to “Weeding effect … Setaria viridis (level)”) is on record?
Answer: Its value is 5 (Level 5: growth control rate is above 85%).

Question: How did the “Weeding effect … Setaria viridis (level)” value turn out when `COC(=O)C(C)O/N=C/c1cc(-n2c(=S)cc(C(F)(F)F)n(C)c2=S)c(F)cc1C#N` (racemic) [Compound 390] was run?
Answer: Its value is 5 (Level 5: growth control rate is above 85%).

Same assay, conditions: Dose 60 g/ha; fresh weight control rate level

Question: Which “Weeding effect … Setaria viridis (level)” value does the source give for `COC(=O)C(C)O/N=C/c1cc(-n2c(=S)cc(C(F)(F)F)n(C)c2=S)c(F)cc1Br` (racemic) [Compound 391] here?
Answer: Its value is 5 (Level 5: growth control rate is above 85%).

Question: How did the “Weeding effect … Setaria viridis (level)” value turn out when `COC(=O)C(C)O/N=C/c1cc(-n2c(=S)cc(C(F)(F)F)n(C)c2=S)c(F)cc1C(F)(F)F` (racemic) [Compound 392] was run?
Answer: The value was 5 (Level 5: growth control rate is above 85%).

Question: For `COC(=O)C(C)O/N=C/c1cc(-n2c(=S)cc(C(F)(F)F)n(C)c2=S)c(F)cc1C#N` (racemic) [Compound 393], which “Weeding effect … Setaria viridis (level)” value is on record?
Answer: Its value is 5 (Level 5: growth control rate is above 85%).

Question: `COC(=O)C(C)O/N=C/c1cc(-n2c(=O)cc(C(F)(F)F)n(C)c2=S)c(F)cc1Br` (racemic) [Compound 394] was tested. Which “Weeding effect … Setaria viridis (level)” value did it give?
Answer: Its value is 5 (Level 5: growth control rate is above 85%).

Tested on: Digitaria sanguinalis
Experiment: Weeding effect in post-emergence stage
Format: in vivo
Conditions: Dose 15 g/ha; fresh weight control rate level
Procedure, shortened: as §1

Question: How did the “Weeding effect in post-emergence stage, Digitaria sanguinalis (level)” value (“Weeding effect … Digitaria sanguinalis (level)” below) turn out when `COC(=O)C(C)O/N=C/c1cc(-n2c(=S)cc(C(F)(F)F)n(C)c2=O)c(F)cc1Br` (racemic) [Compound 388] was run?
Answer: The value was 5 (Level 5: growth control rate is above 85%).

Question: How did the “Weeding effect … Digitaria sanguinalis (level)” value turn out when `COC(=O)C(C)O/N=C/c1cc(-n2c(=S)cc(C(F)(F)F)n(C)c2=S)c(F)cc1C#N` (racemic) [Compound 390] was run?
Answer: Its value is 5 (Level 5: growth control rate is above 85%).

Same assay, conditions: Dose 60 g/ha; fresh weight control rate level

Question: How did the “Weeding effect … Digitaria sanguinalis (level)” value turn out when `COC(=O)C(C)O/N=C/c1cc(-n2c(=S)cc(C(F)(F)F)n(C)c2=S)c(F)cc1Br` (racemic) [Compound 391] was run?
Answer: The value was 5 (Level 5: growth control rate is above 85%).

Question: `COC(=O)C(C)O/N=C/c1cc(-n2c(=S)cc(C(F)(F)F)n(C)c2=S)c(F)cc1C(F)(F)F` (racemic) [Compound 392] was tested. Which “Weeding effect … Digitaria sanguinalis (level)” value did it give?
Answer: The value was 5 (Level 5: growth control rate is above 85%).

Question: With `COC(=O)C(C)O/N=C/c1cc(-n2c(=S)cc(C(F)(F)F)n(C)c2=S)c(F)cc1C#N` (racemic) [Compound 393] as the molecule, how does the “Weeding effect … Digitaria sanguinalis (level)” value read?
Answer: Its value is 5 (Level 5: growth control rate is above 85%).

Question: How did the “Weeding effect … Digitaria sanguinalis (level)” value turn out when `COC(=O)C(C)O/N=C/c1cc(-n2c(=O)cc(C(F)(F)F)n(C)c2=S)c(F)cc1Br` (racemic) [Compound 394] was run?
Answer: The value was 5 (Level 5: growth control rate is above 85%).

Tested on: Abutilon theophrasti
Experiment: Weeding effect in post-emergence stage
Format: in vivo
Conditions: Dose 15 g/ha; fresh weight control rate level
Procedure, shortened: as §1

Question: How did the “Weeding effect in post-emergence stage, Abutilon theophrasti (level)” value (“Weeding effect … Abutilon theophrasti (level)” below) turn out when `COC(=O)C(C)O/N=C/c1cc(-n2c(=S)cc(C(F)(F)F)n(C)c2=O)c(F)cc1Br` (racemic) [Compound 388] was run?
Answer: The value was 5 (Level 5: growth control rate is above 85%).

Question: How did the “Weeding effect … Abutilon theophrasti (level)” value turn out when `COC(=O)C(C)O/N=C/c1cc(-n2c(=S)cc(C(F)(F)F)n(C)c2=S)c(F)cc1C#N` (racemic) [Compound 390] was run?
Answer: The value was 5 (Level 5: growth control rate is above 85%).

Same assay, conditions: Dose 60 g/ha; fresh weight control rate level

Question: How did the “Weeding effect … Abutilon theophrasti (level)” value turn out when `COC(=O)C(C)O/N=C/c1cc(-n2c(=S)cc(C(F)(F)F)n(C)c2=S)c(F)cc1Br` (racemic) [Compound 391] was run?
Answer: Its value is 5 (Level 5: growth control rate is above 85%).

Question: Which “Weeding effect … Abutilon theophrasti (level)” value does the source give for `COC(=O)C(C)O/N=C/c1cc(-n2c(=S)cc(C(F)(F)F)n(C)c2=S)c(F)cc1C(F)(F)F` (racemic) [Compound 392] here?
Answer: The value was 5 (Level 5: growth control rate is above 85%).

Question: How did the “Weeding effect … Abutilon theophrasti (level)” value turn out when `COC(=O)C(C)O/N=C/c1cc(-n2c(=S)cc(C(F)(F)F)n(C)c2=S)c(F)cc1C#N` (racemic) [Compound 393] was run?
Answer: Its value is 5 (Level 5: growth control rate is above 85%).

Question: Which “Weeding effect … Abutilon theophrasti (level)” value does the source give for `COC(=O)C(C)O/N=C/c1cc(-n2c(=O)cc(C(F)(F)F)n(C)c2=S)c(F)cc1Br` (racemic) [Compound 394] here?
Answer: The value was 5 (Level 5: growth control rate is above 85%).

Tested on: Alopecurus japonicus
Experiment: Weeding effect in post-emergence stage
Format: in vivo
Conditions: Dose 15 g/ha; fresh weight control rate level
Procedure, shortened: as §1

Question: For `COC(=O)C(C)O/N=C/c1cc(-n2c(=S)cc(C(F)(F)F)n(C)c2=O)c(F)cc1Br` (racemic) [Compound 388], which “Weeding effect in post-emergence stage, Alopecurus japonicus (level)” value (shortened to “Weeding effect … Alopecurus japonicus (level)”) is on record?
Answer: The value was 4 (Level 4: growth control rate is greater than or equal to 60% and less than 85%).

Question: `COC(=O)C(C)O/N=C/c1cc(-n2c(=S)cc(C(F)(F)F)n(C)c2=S)c(F)cc1C#N` (racemic) [Compound 390] was tested. Which “Weeding effect … Alopecurus japonicus (level)” value did it give?
Answer: The value was 5 (Level 5: growth control rate is above 85%).

Same assay, conditions: Dose 60 g/ha; fresh weight control rate level

Question: For `COC(=O)C(C)O/N=C/c1cc(-n2c(=S)cc(C(F)(F)F)n(C)c2=S)c(F)cc1Br` (racemic) [Compound 391], which “Weeding effect … Alopecurus japonicus (level)” value is on record?
Answer: The value was 5 (Level 5: growth control rate is above 85%).

Question: For `COC(=O)C(C)O/N=C/c1cc(-n2c(=S)cc(C(F)(F)F)n(C)c2=S)c(F)cc1C(F)(F)F` (racemic) [Compound 392], which “Weeding effect … Alopecurus japonicus (level)” value is on record?
Answer: The value was 5 (Level 5: growth control rate is above 85%).

Question: With `COC(=O)C(C)O/N=C/c1cc(-n2c(=S)cc(C(F)(F)F)n(C)c2=S)c(F)cc1C#N` (racemic) [Compound 393] as the molecule, how does the “Weeding effect … Alopecurus japonicus (level)” value read?
Answer: The value was 5 (Level 5: growth control rate is above 85%).

Question: Which “Weeding effect … Alopecurus japonicus (level)” value does the source give for `COC(=O)C(C)O/N=C/c1cc(-n2c(=O)cc(C(F)(F)F)n(C)c2=S)c(F)cc1Br` (racemic) [Compound 394] here?
Answer: The value was 5 (Level 5: growth control rate is above 85%).
